Here are results for 3 compounds from EP0017976A2, “Process for preparing imidazole derivatives” (F. HOFFMANN-LA ROCHE & CO. Aktiengesellschaft, priority 1979, dated 1980).

One test has as its system Schistosoma mansoni. The test can be described thus: Schistosomicidal effect: share of living and dead worm pairs in liver vessels of infected mice, treated vs untreated; VD50 by probit method. To be noted: mice infected with cercariae of Schistosoma mansoni; qualitative statement only, VD50 not given. Format: in vivo. From the text: Die schistosomicide Wirkung wurde ermittelt durch Vergleich des prozentualen Anteils lebender und toter Wurmpaare in den Gefässen der Leber sowohl bei mit Cercarien von Schistosoma mansoni infizierten, behandelten Mäusen als auch bei infizierten aber unbehandelten Kontrolltieren. Die Bestimmung der VD50 (Vermicide Dosis 50%: Dosis, die 50% der Wurmpaare abtötet) erfolgte nach der Probitmethode.

For test [1], the system named is ventralen Prostata und der Samenblase. Put plainly: Antiandrogenic effect: weight decrease of ventral prostate and seminal vesicle in male sterilised rats. Format: in vivo, Ratten. To be noted: qualitative statement only. The source says:
Die antiandrogene Wirkung wurde durch Bestimmung der Gewichtsabnahme der ventralen Prostata und der Samenblase von männlichen sterilisierten Ratten ermittelt.

SMILES strings stand for the structures.

With `CC1(C)NC(=O)N(c2ccc(F)c(C(F)(F)F)c2)C1=N` [1-(3-Trifluormethyl-4-fluor-phenyl)-5-imino-4,4-dimethyl-2-imidazolidinon], in the test with Schistosoma mansoni, the “schistosomicide Wirkung” value is “starken schistosomiciden Wirkung”. `CC1(C)NC(=O)N(c2ccc(F)c(Cl)c2)C1=O` [3-(3-Chlor-4-fluor-phenyl)-5,5-dimethylhydantoin]: the “antiandrogene Wirkung” value in test [1] is “antiandrogen wirksame”. With `CC1(C)NC(=O)N(c2ccc(F)c(C(F)(F)F)c2)C1=O` [3-(3-Trifluormethyl-4-fluorphenyl)-5,5-dimethyl-hydantoin], the “schistosomicide Wirkung” value with Schistosoma mansoni is listed as “starken schistosomiciden Wirkung”.
